# Experimental data reported in patent publication US10294202B2, “Pyrrolidinones as herbicides” (FMC Corporation, priority 2013, dated 2019).
# Experiments:
# pigweed = test: Test A pre-/postemergence herbicide test; type: in vivo, Amaranthus retroflexus
# Procedure, shortened: (§1)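 Greenhouse pot test with pre- and postemergence application of surfactant-containing solvent formulations. Postemergence plants were 2–10 cm, one- to two-leaf stage. Response scored visually after ~10 days, 0 (no effect) to 100 (complete control).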
# soybean = test: Test C pre-/postemergence herbicide test; type: in vivo, Glycine max
# Procedure, shortened: (§2)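 Greenhouse pots; formulation = non-phytotoxic solvent mix + surfactant. PRE onto seeds in loam:sand; POST at 1–4 leaves (2–18 cm) in peat moss/vermiculite medium. Read-out: visual % control vs untreated, day 13–15.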
# morningglory = test: Test C pre-/postemergence herbicide test; type: in vivo, Ipomoea coccinea
# Procedure, shortened: as §2
# wheat = test: Test A pre-/postemergence herbicide test; type: in vivo, Triticum aestivum; settings: Postemergence
# Procedure, shortened: as §1
# galium = test: Test C pre-/postemergence herbicide test; type: in vivo, Galium aparine
# Procedure, shortened: as §2
# wheat (winter wheat) = test: Test C pre-/postemergence herbicide test; type: in vivo, Triticum aestivum
# Procedure, shortened: as §2
# barnyardgrass = test: Test A pre-/postemergence herbicide test; type: in vivo, Echinochloa crus-galli
# Procedure, shortened: as §1
# johnsongrass = test: Test C pre-/postemergence herbicide test; type: in vivo, Sorghum halepense
# Procedure, shortened: as §2
# crabgrass, large = test: Test C pre-/postemergence herbicide test; type: in vivo, Digitaria sanguinalis
# Procedure, shortened: as §2
# ryegrass, Italian = test: Test C pre-/postemergence herbicide test; type: in vivo, Lolium multiflorum
# Procedure, shortened: as §2
# corn [1] = test: Test C pre-/postemergence herbicide test; type: in vivo, Zea mays
# Procedure, shortened: as §2
# foxtail, giant = test: Test C pre-/postemergence herbicide test; type: in vivo, Setaria faberii
# Procedure, shortened: as §2
# corn [2] = test: Test A pre-/postemergence herbicide test; type: in vivo, Zea mays; settings: Postemergence
# Procedure, shortened: as §1
# [3] = Postemergence, 125 g ai/ha, visual rating on 0 to 100 scale (0 no effect, 100 complete control), approx. 10 days
# [4] = Postemergence, 500 g ai/ha, 0 to 100 scale (0 no effect, 100 complete control)
# [5] = Preemergence, 125 g ai/ha, 0 to 100 scale where 0 is no effect and 100 is complete control
# [6] = Preemergence, 500 g ai/ha, visual rating on 0 to 100 scale (0 no effect, 100 complete control)
# [7] = Postemergence, 31 g ai/ha, scale 0 to 100 (0 no effect, 100 complete control)
# [8] = Postemergence, 62 g ai/ha, scale 0 (no effect) to 100 (complete control)
# [9] = Postemergence, 125 g ai/ha, scale 0 to 100 (0 no effect, 100 complete control)
# [10] = Postemergence, 250 g ai/ha, scale 0 to 100 (0 no effect, 100 complete control)
# [11] = Preemergence, 62 g ai/ha, scale 0 to 100 (0 no effect, 100 complete control)
# [12] = Preemergence, 125 g ai/ha, scale 0 to 100
# [13] = Preemergence, 31 g ai/ha, scale 0 to 100, 0 is no effect and 100 is complete control
# [14] = 125 g ai/ha, visual rating on 0 to 100 scale (0 no effect, 100 complete control), approx. 10 days
# [15] = 500 g ai/ha, 0 to 100 scale (0 no effect, 100 complete control)
smiles,measurement,setting,value
O=C1NCC(c2cccc(Br)c2)C1C(=O)Nc1cccc(F)c1F (centres unmarked) [Compound 309],"Plant response rating, Pigweed",pigweed; [3],0
same,"Plant response rating, Pigweed",pigweed; [4],0
same,"Plant response rating, Pigweed",pigweed; [5],0
same,Pigweed plant response rating,pigweed; [6],0
same,"Plant response rating, Soybean",soybean; [7],0
same,"Plant response rating, Soybean",soybean; [8],0
same,"Plant response rating, Soybean",soybean; [9],15
same,"Plant response rating, Soybean",soybean; [10],0
same,Soybean plant response rating,soybean; [11],0
same,"Plant response rating, Soybean",soybean; [12],0
same,"Plant response rating (scale of 0 to 100), Soybean","soybean; Preemergence, 250 g ai/ha",0
same,"Plant response rating, Morningglory",morningglory; [7],60
same,"Plant response rating, Morningglory",morningglory; [8],10
same,"Plant response rating, Morningglory",morningglory; [9],25
same,"Plant response rating, Morningglory",morningglory; [10],10
same,Morningglory plant response rating,morningglory; [13],0
same,Morningglory plant response rating,morningglory; [11],0
same,"Plant response rating, Morningglory",morningglory; [12],10
same,"Plant response rating (scale of 0 to 100), Morningglory","morningglory; Preemergence, 250 g ai/ha",10
same,"Plant response rating, Wheat",wheat; [14],40
same,"Plant response rating, Wheat",wheat; [15],60
same,"Plant response rating, Galium",galium; [7],30
same,"Plant response rating, Galium",galium; [8],40
same,"Plant response rating, Galium",galium; [9],55
same,"Plant response rating, Galium",galium; [10],60
same,Galium plant response rating,galium; [13],0
same,Galium plant response rating,galium; [11],0
same,"Plant response rating, Galium",galium; [12],75
same,"Plant response rating (scale of 0 to 100), Galium","galium; Preemergence, 250 g ai/ha",85
same,"Plant response rating, Wheat",wheat (winter wheat); [7],0
same,"Plant response rating, Wheat",wheat (winter wheat); [8],0
same,"Plant response rating, Wheat",wheat (winter wheat); [9],0
same,"Plant response rating, Wheat",wheat (winter wheat); [10],0
same,Wheat plant response rating,wheat (winter wheat); [11],0
same,"Plant response rating, Wheat",wheat (winter wheat); [12],0
same,"Plant response rating (scale of 0 to 100), Wheat","wheat (winter wheat); Preemergence, 250 g ai/ha",0
same,"Plant response rating, Barnyardgrass",barnyardgrass; [3],80
same,"Plant response rating, Barnyardgrass",barnyardgrass; [4],90
same,"Plant response rating, Barnyardgrass",barnyardgrass; [5],80
same,Barnyardgrass plant response rating,barnyardgrass; [6],80
same,"Plant response rating, Johnsongrass",johnsongrass; [7],0
same,"Plant response rating, Johnsongrass",johnsongrass; [8],0
same,"Plant response rating, Johnsongrass",johnsongrass; [9],0
same,"Plant response rating, Johnsongrass",johnsongrass; [10],15
same,Johnsongrass plant response rating,johnsongrass; [13],10
same,Johnsongrass plant response rating,johnsongrass; [11],10
same,"Plant response rating, Johnsongrass",johnsongrass; [12],60
same,"Plant response rating (scale of 0 to 100), Johnsongrass","johnsongrass; Preemergence, 250 g ai/ha",80
same,"Plant response rating, Crabgrass, Large","crabgrass, large; [7]",0
same,"Plant response rating, Crabgrass, Large","crabgrass, large; [8]",30
same,"Plant response rating, Crabgrass, Large","crabgrass, large; [9]",60
same,"Plant response rating, Crabgrass, Large","crabgrass, large; [10]",65
same,"Crabgrass, Large plant response rating","crabgrass, large; [13]",90
same,"Crabgrass, Large plant response rating","crabgrass, large; [11]",90
same,"Plant response rating, Crabgrass, Large","crabgrass, large; [12]",95
same,"Plant response rating (scale of 0 to 100), Crabgrass, Large","crabgrass, large; Preemergence, 250 g ai/ha",98
same,"Plant response rating, Ryegrass, Italian","ryegrass, Italian; [7]",0
same,"Plant response rating, Ryegrass, Italian","ryegrass, Italian; [8]",0
same,"Plant response rating, Ryegrass, Italian","ryegrass, Italian; [9]",0
same,"Plant response rating, Ryegrass, Italian","ryegrass, Italian; [10]",5
same,"Ryegrass, Italian plant response rating","ryegrass, Italian; [11]",0
same,"Plant response rating, Ryegrass, Italian","ryegrass, Italian; [12]",0
same,"Plant response rating (scale of 0 to 100), Ryegrass, Italian","ryegrass, Italian; Preemergence, 250 g ai/ha",10
same,"Plant response rating, Corn",corn [1]; [7],0
same,"Plant response rating, Corn",corn [1]; [8],0
same,"Plant response rating, Corn",corn [1]; [9],0
same,"Plant response rating, Corn",corn [1]; [10],20
same,Corn plant response rating,corn [1]; [13],0
same,Corn plant response rating,corn [1]; [11],0
same,"Plant response rating, Corn",corn [1]; [12],65
same,"Plant response rating (scale of 0 to 100), Corn","corn [1]; Preemergence, 250 g ai/ha",70
same,"Plant response rating, Foxtail, Giant","foxtail, giant; [7]",10
same,"Plant response rating, Foxtail, Giant","foxtail, giant; [8]",0
same,"Plant response rating, Foxtail, Giant","foxtail, giant; [9]",40
same,"Plant response rating, Foxtail, Giant","foxtail, giant; [10]",80
same,"Foxtail, Giant plant response rating","foxtail, giant; [13]",90
same,"Foxtail, Giant plant response rating","foxtail, giant; [11]",90
same,"Plant response rating, Foxtail, Giant","foxtail, giant; [12]",90
same,"Plant response rating (scale of 0 to 100), Foxtail, Giant","foxtail, giant; Preemergence, 250 g ai/ha",95
same,"Plant response rating, Corn",corn [2]; [14],30
same,"Plant response rating, Corn",corn [2]; [15],80
O=C1NCC(c2cccc(C(F)(F)F)c2)C1C(=O)Nc1ccccc1Cl (centres unmarked) [Compound 312],"Plant response rating, Pigweed",pigweed; [3],20
same,"Plant response rating, Pigweed",pigweed; [4],30
same,"Plant response rating, Pigweed",pigweed; [5],0
same,Pigweed plant response rating,pigweed; [6],20
same,"Plant response rating, Soybean",soybean; [7],0
same,"Plant response rating, Soybean",soybean; [8],0
same,"Plant response rating, Soybean",soybean; [9],0
same,"Plant response rating, Soybean",soybean; [10],0
same,Soybean plant response rating,soybean; [11],0
same,"Plant response rating, Soybean",soybean; [12],0
same,"Plant response rating (scale of 0 to 100), Soybean","soybean; Preemergence, 250 g ai/ha",0
same,"Plant response rating, Morningglory",morningglory; [7],0
same,"Plant response rating, Morningglory",morningglory; [8],0
same,"Plant response rating, Morningglory",morningglory; [9],10
same,"Plant response rating, Morningglory",morningglory; [10],20
same,Morningglory plant response rating,morningglory; [13],0
same,Morningglory plant response rating,morningglory; [11],35
same,"Plant response rating, Morningglory",morningglory; [12],40
same,"Plant response rating (scale of 0 to 100), Morningglory","morningglory; Preemergence, 250 g ai/ha",55
same,"Plant response rating, Wheat",wheat; [14],40
same,"Plant response rating, Wheat",wheat; [15],70
same,Galium plant response rating,galium; [13],90
same,Galium plant response rating,galium; [11],0
same,"Plant response rating, Galium",galium; [12],5
same,"Plant response rating (scale of 0 to 100), Galium","galium; Preemergence, 250 g ai/ha",80
same,"Plant response rating, Wheat",wheat (winter wheat); [7],0
same,"Plant response rating, Wheat",wheat (winter wheat); [8],0
same,"Plant response rating, Wheat",wheat (winter wheat); [9],0
same,"Plant response rating, Wheat",wheat (winter wheat); [10],0
same,Wheat plant response rating,wheat (winter wheat); [11],30
same,"Plant response rating, Wheat",wheat (winter wheat); [12],60
same,"Plant response rating (scale of 0 to 100), Wheat","wheat (winter wheat); Preemergence, 250 g ai/ha",65
same,"Plant response rating, Barnyardgrass",barnyardgrass; [3],80
same,"Plant response rating, Barnyardgrass",barnyardgrass; [4],90
same,"Plant response rating, Barnyardgrass",barnyardgrass; [5],80
same,Barnyardgrass plant response rating,barnyardgrass; [6],90
same,"Plant response rating, Johnsongrass",johnsongrass; [7],0
same,"Plant response rating, Johnsongrass",johnsongrass; [8],0
same,"Plant response rating, Johnsongrass",johnsongrass; [9],25
same,"Plant response rating, Johnsongrass",johnsongrass; [10],0
same,Johnsongrass plant response rating,johnsongrass; [13],30
same,Johnsongrass plant response rating,johnsongrass; [11],50
same,"Plant response rating, Johnsongrass",johnsongrass; [12],80
same,"Plant response rating (scale of 0 to 100), Johnsongrass","johnsongrass; Preemergence, 250 g ai/ha",85
same,"Plant response rating, Crabgrass, Large","crabgrass, large; [7]",25
same,"Plant response rating, Crabgrass, Large","crabgrass, large; [8]",50
same,"Plant response rating, Crabgrass, Large","crabgrass, large; [9]",80
same,"Plant response rating, Crabgrass, Large","crabgrass, large; [10]",90
same,"Crabgrass, Large plant response rating","crabgrass, large; [13]",90
same,"Crabgrass, Large plant response rating","crabgrass, large; [11]",95
same,"Plant response rating, Crabgrass, Large","crabgrass, large; [12]",95
same,"Plant response rating (scale of 0 to 100), Crabgrass, Large","crabgrass, large; Preemergence, 250 g ai/ha",95
same,"Plant response rating, Ryegrass, Italian","ryegrass, Italian; [7]",0
same,"Plant response rating, Ryegrass, Italian","ryegrass, Italian; [8]",0
same,"Plant response rating, Ryegrass, Italian","ryegrass, Italian; [9]",35
same,"Plant response rating, Ryegrass, Italian","ryegrass, Italian; [10]",10
same,"Ryegrass, Italian plant response rating","ryegrass, Italian; [11]",30
same,"Plant response rating, Ryegrass, Italian","ryegrass, Italian; [12]",35
same,"Plant response rating (scale of 0 to 100), Ryegrass, Italian","ryegrass, Italian; Preemergence, 250 g ai/ha",30
same,"Plant response rating, Corn",corn [1]; [7],0
same,"Plant response rating, Corn",corn [1]; [8],15
same,"Plant response rating, Corn",corn [1]; [9],10
same,"Plant response rating, Corn",corn [1]; [10],10
same,Corn plant response rating,corn [1]; [13],10
same,Corn plant response rating,corn [1]; [11],60
same,"Plant response rating, Corn",corn [1]; [12],55
same,"Plant response rating (scale of 0 to 100), Corn","corn [1]; Preemergence, 250 g ai/ha",70
same,"Plant response rating, Foxtail, Giant","foxtail, giant; [7]",55
same,"Plant response rating, Foxtail, Giant","foxtail, giant; [8]",75
same,"Plant response rating, Foxtail, Giant","foxtail, giant; [9]",75
same,"Plant response rating, Foxtail, Giant","foxtail, giant; [10]",80
same,"Foxtail, Giant plant response rating","foxtail, giant; [13]",90
same,"Foxtail, Giant plant response rating","foxtail, giant; [11]",90
same,"Plant response rating, Foxtail, Giant","foxtail, giant; [12]",90
same,"Plant response rating (scale of 0 to 100), Foxtail, Giant","foxtail, giant; Preemergence, 250 g ai/ha",95
same,"Plant response rating, Corn",corn [2]; [14],60
same,"Plant response rating, Corn",corn [2]; [15],80
